Reference: patent US20130252988A1, “COMPOSITIONS AND METHODS FOR TREATING MYELOFIBROSIS” (TARGEGEN, INC., priority 2010, published 2013)
Entries after “also recorded” stand apart in the source; their conditions may differ. Structures can show the parent of a compound that is named as a salt.

Columns and labels:
WBC count = test: Leukocytosis: WBC count; type: in vivo, human; settings: for Subjects who achieved a normal WBC count: following 6 cycles; for Subjects with normal WBC counts: following 12 cycles
platelet count = test: Thrombocytosis: platelet count; type: in vivo, human; settings: for Subjects who achieved a normal platelet count: after 6 cycles; for Subjects with a normal platelet count: following 12 cycles
[1] = tested on: subjects with myelofibrosis (constitutional symptoms); test: Constitutional symptoms rated by subjects (early satiety, fatigue, night sweats, cough, pruritus); type: in vivo
Source text: The data here reflected changes from symptoms present at baseline. […] Severity was rated by subjects on a scale of 1-10: 0=absent; 1-3=mild; 4-7=moderate; 8-10=severe. Improved=downgrade to absent or to mild or moderate from more severe rating at baseline.
Symptoms were categorized as “absent” (score=0), “mild” (score=1-3). “moderate” (score=4-7), or “severe” (score=8-10).

[2] = MTD cohort, after 1 cycle (n=12)
[3] = MTD cohort, after 1 cycle, 8 subjects at baseline
[4] = MTD cohort, after 6 cycles (n=16)

SMILES: Cc1cnc(Nc2ccc(OCCN3CCCC3)cc2)nc1Nc1cccc(S(=O)(=O)NC(C)(C)C)c1 [TG101348, N-tert-butyl-3-[(5-methyl-2-{[4-(2-pyrrolidin-1-ylethoxy)phenyl]amino}pyrimidin-4-yl)amino]benzenesulfonamide dihydrochloride monohydrate]
- Patients with a normal WBC count at last follow-up visit (WBC count; Example 1, leukocytosis at baseline, started at =680 mg): 70%
- Subjects with normal WBC counts at follow-up visit (WBC count; Example 2, baseline WBC count >11×10^9/L): 73%
- Anti-myeloproliferation activity: resolution of leukocytosis and thrombocytosis (WBC count; Example 2 conclusions): virtually all treated subjects experiencing complete resolution of leukocytosis and thrombocytosis
- Subjects who achieved a normal WBC count (WBC count; MTD cohort (13 of 18)): 72%
- Subjects who achieved a normal WBC count (WBC count; across doses (16 of 28 with baseline leukocytosis)): 57%
- Subjects with normal WBC counts (WBC count; MTD cohort (10 of 17)): 59%
- Subjects with normal WBC counts (WBC count; across doses (14 of 25)): 56%
- Subjects who achieved a normal platelet count (platelet count; MTD cohort (7 with baseline thrombocytosis)): 100%
- Subjects who achieved a normal platelet count (platelet count; across doses (10 with baseline thrombocytosis)): 90%
- Effect on platelet counts in thrombocytosis (platelet count; baseline platelet count >450×10^9/L): able to reduce platelet counts
- Subjects with a normal platelet count (platelet count; MTD cohort, all of 6): 6 subjects
- Subjects with a normal platelet count (platelet count; across doses (7 of 8)): 88%
- Subjects who reported new onset of =1 symptom during the study ([1]; FIG. 4): 18 subjects
- Night sweats: subjects with complete resolution ([1]; MTD cohort, after 1 cycle): 64%
- Cough: subjects reporting improvement [1, 2]: 75%
- Cough: subjects with complete resolution [1, 2]: 67%
- Pruritus: subjects with complete resolution [1, 3]: 50%
- Pruritus: subjects with improvement [1, 3]: 75%
- Early satiety: subjects with complete resolution ([1]; MTD cohort, after 2 cycles (n=27)): 56%
- Night sweats: subjects with complete resolution ([1]; MTD cohort, after 6 cycles (n=9)): 89%
- Fatigue: subjects reporting improvement [1, 4]: 63%
- Fatigue: subjects with complete resolution [1, 4]: 25%
- Effect on MF-associated constitutional symptoms ([1]; early satiety, fatigue, cough, pruritus, night sweats, baseline versus last visit, dihydrochloride monohydrate): clinically significant benefit or resolution of constitutional symptoms; also recorded: able to improve the MF-associated constitutional symptoms; also recorded: remarkable activity against MF-associated constitutional symptoms, pruritus and cachexia
- Subjects with new-onset symptoms resolved by last follow-up visit ([1]; of the 18 with new onset, FIG. 4): 12 subjects
- Pruritus in one subject ([1]; subject with JAK2V617F-positive PMF, started at 680 mg/day): complete resolution of pruritus
